# Laboratory results: patent US11202792B2, “CD99 inhibitors and their uses” (GEORGETOWN UNIVERSITY, priority 2016, dated 2021)
# pIC50: −log10 of the molar value. Read-outs that look alike come from different tables or passages of the source.
# What was measured:
# [1] = system: A673 ES cells; test: Cell viability IC50, A673; type: cell-based; conditions: Homo sapiens
# Method: (§1) The plate was installed into the RTCA system, and the electrical impedance (represented as cell index) was measured every 10 min.
# (§2) To investigate the relationship between the level of CD99 expression and drug sensitivity, the endogenous expression of CD99 was determined in a panel of 9 ES and 13 non-ES cell lines. The recombinant purified CD99-ECD protein was used to generate standard curves for immunoquantification of CD99 expression by immunoblotting (FIGS. 6B and 6C).
# [2] = system: TC-CD99-shRNA #2 cells; conditions: mean ± SD
# Method: as §1
# (§3) TC-CD99-shRNA clones (TC-CD99-shRNA #1 and TC-CD99-shRNA #2) were established after selection in neomycin (500 μg/ml) (Sigma-Aldrich). The expression of DCK and CD99 was suppressed transiently by using a validated small interfering RNA (siRNA) duplexes targeting coding region (Invitrogen (Carlsbad, Calif.); #s186 and #s8768, respectively). Silencer™ Select Negative Control No. 2 siRNA (Invitrogen) was used as the control. Cells were transfected with DCK or CD99 or control siRNA oligonucleotides using X-tremeGene siRNA transfection reagent (Roche Diagnostics (Basel, Switzerland)) according to the manufacturer's protocol. The cells were analyzed for DCK and CD99 knockdown after 45 or 72 h by immunoblotting.
# (§4) Two stable transfectants of TC-71 cell line, TC-CD99-shRNA #1 and TC-CD99-shRNA #2, were generated by using plasmids expressing either a shRNA targeting the 3′ untranslated region (UTR) of CD99 or a scrambled shRNA control.
# [3] = system: TC-CD99-shRNA #1 cells; conditions: mean ± SD
# Method: as §1, §3, §4
# [4] = system: TC-71, 6647 and RDES ES cells; test: Soft agar colony formation assay, ES cells; type: cell-based, human; conditions: dose-dependent
# Method: Anchorage-independent growth was determined in 0.33% agarose (Sea-Plaque Agarose, Lonza) with a 0.5% agarose underlay. […] Colonies were counted after 7-12 days.
# [5] = system: RH1 rhabdomyosarcoma cells; test: Cell viability IC50, RH1; type: cell-based; conditions: Homo sapiens, RH1 (RM)
# Method: as §1, §2
# [6] = system: MG63 OS cells; test: Cell viability IC50, MG63; type: cell-based; conditions: Homo sapiens, MG-63
# Method: as §1, §2
# [7] = system: ROCK2 expression in RDES, 6647, IOR/CAR and TC-71 ES cells; test: ROCK2 expression by immunoblot in ES cells; type: cell-based, human; conditions: 24 h, vs DMSO-treated control cells
# Method: Immunoblot analysis was performed on total cell lysates for ROCK2 and GAPDH expression. In FIG. 8B, TC-71 control and TC-CD99-shRNA #2 cells were treated with either drug at indicated concentrations for 1, 3 and 6 h. Immunoblot analysis was performed on total cell lysates for ROCK2 and GAPDH expression. In FIG. 8C, cell migration experiments were performed using Boyden chamber transwell migration assay with 10% serum serving as the chemoattractant in the lower chamber. […] The number of migrated cells was then quantified by counting the cells in the bottom chamber under the microscope. Asterisks indicate statistically significant differences between treatments (*p<0.05; vs. control using a Student's unpaired t test). […]
structure (smiles),measurement,setting,value
Nc1nc(Cl)nc2c1ncn2[C@H]1C[C@H](O)[C@@H](CO)O1 [cladribine],pIC50,[1],5.13
same,Fold changes in IC50 compared with TC-71 parental cells,[2],2.35
same,Fold changes in IC50 compared with TC-71 parental cells,[2]; listed as Cladribine,2.35 ± 1.43 (n = 2)
same,Fold changes in IC50 compared with TC-71 parental cells,[3],2.85
same,Fold changes in IC50 compared with TC-71 parental cells,[3]; listed as Cladribine,2.85 ± 1.13 (n = 4)
same,colony formation (anchorage-independent growth),[4],significantly inhibited
same,pIC50,[5],6.05
same,pIC50,[6],< 4.52
same,ROCK2 expression,[7],notable decrease
Nc1nc(Cl)nc2c1ncn2[C@@H]1O[C@H](CO)[C@@H](O)[C@@H]1F [clofarabine],pIC50,[1],5.72
same,Fold changes in IC50 compared with TC-71 parental cells,[2],1.63
same,Fold changes in IC50 compared with TC-71 parental cells,[2]; listed as Clofarabine,1.63 ± 0.54 (n = 5)
same,Fold changes in IC50 compared with TC-71 parental cells,[3],3.70
same,Fold changes in IC50 compared with TC-71 parental cells,[3]; listed as Clofarabine,3.70 ± 2.98 (n = 5)
same,colony formation (anchorage-independent growth),[4],significantly inhibited
same,pIC50,[5],6.70
same,pIC50,[6],< 5.00
same,ROCK2 expression,[7],notable decrease
